This is an account of results in PubChem BioAssay (NCI).

Assay in all cases: growth of human tumour cells (NCI), 48 h
The test system of assay [1] is A549 NSCLC.
Assay [2] has as its system CCRF-CEM leukemia.
The test system of assay [3] is COLO 205 colon.
The test system of assay [4] is EKVX NSCLC.
Assay [5] deals with HCC-2998 colon.
The test system of assay [6] is HCT-15 colon.
In assay [7] the test system is HL-60(TB) leukemia.
Assay [8] has as its system HT29 colon.
Assay [9] deals with MCF7 breast.
Assay [10] deals with MDA-MB-435.
For assay [11], the system named is MDA-N.
In assay [12] the test system is MOLT-4 leukemia.
For assay [13], the system named is OVCAR-8 ovarian.
For assay [14], the system named is RPMI-8226 leukemia.
In assay [15] the test system is SK-MEL-5 melanoma.
Assay [16] relates to SNB-19 CNS.
Assay [17] concerns SNB-75 CNS.
Assay [18] deals with SR leukemia.
Assay [19] has as its system A498 renal.
In assay [20] the test system is NCI-H23 lung.

The structures appear in SMILES notation.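 Where inhibition never reached the appropriate level, the endpoint shown equals the highest concentration tested. Otherwise, values were interpolated linearly from a five-concentration, 48-hour dose response in 96-well plates. TGI marks complete inhibition of growth.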

For the molecule `S=C(NCc1ccccn1)N/N=C/c1ccccn1`, the TGI was 1.46 µM in assay [1]; < 0.011 µM in assay [2]; 0.379 µM in [3]; 2.44 µM in [4]; > 100 µM in assay [5]; > 100 µM in assay [6]. Further, the TGI in assay [7] is < 0.01 µM; in assay [8], > 100 µM; in assay [9], > 100 µM; in [10], > 100 µM; in assay [11], > 100 µM; in assay [12], < 0.0357 µM. Besides, the TGI in [13] was > 100 µM; in assay [14] it was < 0.01 µM; in assay [15], 1.5 µM; in [16], 28.6 µM; in assay [17] it was > 100 µM; in [18] it was 0.0113 µM.
For the molecule `CC1(C)N=C(C(N)=O)c2[nH]cnc2N1`, the TGI in [19], in assay [1], in assay [2], in assay [3], in assay [4] and in assay [5] was > 100 µM throughout. Further, the TGI in assay [6], in assay [7], in [8], in [9], in assay [10] and in [11] was > 100 µM each time. Also, the TGI in assay [20], in assay [13], in assay [14], in [15], in [16] and in assay [17] was > 100 µM each time. Besides, the TGI in assay [18] was > 100 µM.
For the molecule `NC(Cc1ccccc1)C(=O)OCN1C(=O)C2C3C=CC(C2C1=O)C1C(=O)N(COC(=O)C(N)Cc2ccccc2)C(=O)C31` (stereo unspecified), the TGI is > 100 µM in assay [1]; 49.7 µM in assay [2]; > 100 µM in assay [3]; > 100 µM in assay [4]; > 100 µM in assay [5]; 78.4 µM in [6]. Moreover, the TGI was 37.8 µM in assay [7]; 39.7 µM in [8]; 39.2 µM in [9]; > 100 µM in assay [10]; > 100 µM in [11]; 51.3 µM in [12]. Moreover, the TGI in assay [20] was > 100 µM; in assay [13], > 100 µM; in [14] it was 48 µM; in [15] it was > 100 µM; in assay [16] it was > 100 µM; in assay [18] it was 53.4 µM.
Consider `CN(C(=O)Cc1ccccc1)n1cn[n+](CC(=O)OC(C)(C)C)c1`, for which the TGI in assay [19], in assay [1], in assay [2], in [3], in [4] and in [5] was > 10 µM each time. Also, the TGI in [6], in [8], in assay [9], in assay [10], in assay [11] and in [12] was > 10 µM each time. The TGI in assay [20], in assay [13], in [14], in assay [15], in [16] and in assay [18] was > 10 µM in each case.
With `CSc1cc(Cl)c(C)cc1S(=O)(=O)NC(=O)NNc1ccc(C)cc1`, the TGI was > 100 µM in assay [19]; > 100 µM in [1]; > 100 µM in [2]; > 100 µM in assay [3]; > 100 µM in [4]; 66.1 µM in [5]. Also, the TGI in assay [6], in assay [8], in [9], in assay [10], in assay [11] and in assay [12] was > 100 µM each time. Besides, the TGI in assay [13], in assay [15], in [16], in assay [17] and in assay [18] was > 100 µM in each case.
Turning to `c1ccc(C(Oc2noc3ccccc23)c2ccccc2)cc1`, the TGI was > 100 µM in [19]; > 100 µM in [1]; 49.7 µM in assay [2]; 37 µM in [3]; > 100 µM in [4]; 44.7 µM in assay [5]. Moreover, the TGI in [6] is > 100 µM; in assay [7], 61.3 µM; in assay [8], > 100 µM; in assay [9] it was > 100 µM; in [10], 75.4 µM; in [11], 67.2 µM. Also, the TGI in assay [12] was 71.7 µM; in [20], > 100 µM; in assay [13] it was > 100 µM; in [15], 39.6 µM; in [16], > 100 µM; in assay [17], 37 µM. In assay [18], this molecule returned a TGI of 51.6 µM.
In the case of `OCCc1ccsc1-c1sc(-c2cc(CCO)c(-c3sc(-c4cc(CCO)c(-c5sccc5CCO)s4)cc3CCO)s2)cc1CCO`, the TGI in assay [19] was 3.65 µM; in [1], 2.2 µM; in [2], > 25.4 µM; in assay [3], 5.03 µM; in [4], 2.91 µM; in [5], 2.95 µM. For the same molecule, the TGI was 3.52 µM in assay [6]; 3.61 µM in assay [7]; 3.99 µM in assay [8]; 1.95 µM in assay [9]; 3.39 µM in assay [10]; 4.29 µM in [11]. In addition, the TGI in [20] is 2.87 µM; in assay [13] it was 3.13 µM; in assay [14], 2.32 µM; in assay [15], 3.01 µM; in assay [16], 3.01 µM; in assay [17], 2.89 µM. Further, the TGI in assay [18] came out at 2.59 µM.
On to `COC(=O)[C@@H]1c2c(oc3cc(CO)cc(O)c3c2=O)C=C[C@H]1O`, for which the TGI is 20 µM in [19]; 34.1 µM in assay [1]; 25 µM in [2]; 29 µM in assay [3]; 27.4 µM in assay [4]; 9.48 µM in assay [6]. Besides, the TGI is 14.2 µM in [8]; 12 µM in [9]; 15.5 µM in assay [10]; 18.9 µM in assay [11]; > 100 µM in [12]; 36 µM in [20]. Further, the TGI in [13] is 21.7 µM; in assay [14], 9.72 µM; in assay [15], 28.5 µM; in assay [16], 33.5 µM; in assay [17] it was 31.7 µM; in assay [18] it was > 100 µM.
